Patent publication US9637451B2, “Indole compound” (ASTELLAS PHARMA INC., priority 2014, dated 2017)

Key:
human MT1 receptor = target: T1, human MT1 receptor (Homo sapiens, UniProt P48039); experiment: Activation of human MT1 receptor in receptor-expressing cells, intracellular Ca2+ by FLIPR; type: cell-based
T1 construct: expressed in transfected cells

human MT2 receptor = target: T2, human MT2 receptor (Homo sapiens, UniProt P49286); experiment: Activation of human MT2 receptor in receptor-expressing cells, intracellular Ca2+ by FLIPR; type: cell-based
T2 construct: expressed in transfected cells
T2 sequence (P49286 1-362): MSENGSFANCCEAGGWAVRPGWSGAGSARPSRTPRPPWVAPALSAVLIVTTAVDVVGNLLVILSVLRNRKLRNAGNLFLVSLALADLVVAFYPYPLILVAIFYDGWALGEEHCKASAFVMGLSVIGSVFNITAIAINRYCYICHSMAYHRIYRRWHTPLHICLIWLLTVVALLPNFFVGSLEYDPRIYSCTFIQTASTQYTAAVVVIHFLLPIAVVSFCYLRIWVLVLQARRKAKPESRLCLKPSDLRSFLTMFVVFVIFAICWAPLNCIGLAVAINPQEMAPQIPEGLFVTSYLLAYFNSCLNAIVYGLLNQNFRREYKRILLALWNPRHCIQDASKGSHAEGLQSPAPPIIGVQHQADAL

SD female rats = experiment: Effect of test compound on urethral pressure in anesthetized rats; type: in vivo, rat; conditions: dose of 0.01 mg/kg
Source text: SD female rats were anesthetized with urethane and subjected to laparotomy. Then, the bladder apex was incised and a catheter was inserted from the bladder apex. Further, the catheter tip was ligated and fixed to be located in the proximal urethra portion. The catheter was connected to a pressure transducer and an infusion pump. Further, a catheter for administrating the compound was fitted into the femoral vein. Physiological saline was continuously infused into the urethra and the perfusion pressure in the urethra was measured. After the urethral pressure was stabilized, the test compound that had been dissolved in physiological saline, or physiological saline including 5% dimethylacetamide and 0.5% Cremophor was administered intravenously at 0.01 mg/kg or 0.1 mg/kg, and a change in urethral pressures was measured.
Further, the results of administering an active metabolite of midodrine (ST-1059: purchased from CHEMIZON) (J. Urology, 118, 980-982 (1977)) which is an α1 adrenoceptor agonist and is confirmed to have a clinical effect on stress urinary incontinence at doses, 0.01 mg/kg and, 0.1 mg/kg in rats, presumed to correspond to the clinical doses are referenced and shown in the Tables below.
The increment value in the urethral pressures of ramelteon and the Example compounds of the present invention at the time of administration are shown in Table 3. Ex represents Example No. of the test compound and N.T represents Not Tested.

rat = experiment: Measurement test of electroencephalogram in rat (sleep-awake cycle); type: in vivo; conditions: oral
Source text: After the completion of a quarantine period, the animals showing no abnormal health condition were subjected to an electroencephalogram electrode chronic implantation surgery with reference to brain atlas of Pellegrino (Plenum Press, New York (1979)), or the like. Under anesthesia with pentobarbital sodium, the rat was calibrated in a brain stereotaxic apparatus. In the frontal cortex, a monopolar silver ball electrode having a diameter of the tip of about 1 mm was placed on a hard film of the brain. Into the hippocampus, a laminated bipolar electrodes made of stainless steel was stuck. The reference electrode was screwed around the olfactory brain. Further, as for the electromyogram measurement, the lead wire was implanted in the both electrodes about 1 cm between the electrodes in the neck portion. The other end was exposed to the head portion subcutaneously. The electrodes and the lead wires were subjected to soldering with connector sockets and fixed to the skull with a dental resin or the like.
The rats were accommodated in a measurement cage under rat feeding and water supply on the morning of the day of administration, and accustomed to the measurement environment. After measuring the weight using an electronic scale balance, a lead wire and a connector socket were connected 30 minutes or more before the start of the electroencephalogram measurement, and the rat was accustomed in the measurement state under no anesthesia and no custody. The test compounds were intraperitoneally or orally administered to the rats and the electroencephalogram was measured continuously until 6 hours after the administration.
Ramelteon: solvent, 0.1 mg/kg, 1 mg/kg, and 10 mg/kg; intraperitoneal administration
Example 1: solvent, 3 mg/kg, 30 mg/kg, and 300 mg/kg; oral administration
Example 6: solvent, 10 mg/kg, 30 mg/kg, and 300 mg/kg; oral administration
The electrical signals of electroencephalogram and of electromyogram were applied to an electroencephalogram system and an electroencephalogram frequency analysis program of a personal computer was used to acquire the wave form of the electroencephalogram from the electroencephalograph system. In addition, the image signals of the electroencephalogram waveform were applied to an EEG video system and recorded on DVD-R using a DVD recorder. The behavior observation was carried out through a video camera at the same time as the electroencephalogram measurement and the images were also recorded on DVD-R using DVD recorder.
The presence or absence of abnormality in the electroencephalogram waveform in up to 6 hours from immediately after the administration, to each animal, respectively, was observed.
The analysis of a sleep-awake cycle was carried out using a sleep stage display-supporting program (MTS50061B, Japan Santec Corporation) based on the electroencephalogram waveforms acquired with an electroencephalogram frequency analysis program. Using the index of electroencephalogram, electromyogram, and behavior, the sleep steps were classified into an awake phase, a rest phase, a slow wave light sleep (S.W.L.S.) phase, a slow wave deep sleep (S.W.D.S.) phase, and a fast wave sleep (F.W.S., REM sleep) phase. Further, the rest phase, the slow wave light sleep phase, and the slow wave deep sleep phase were summed to determine a slow wave sleep (S.W.S., Non-REM sleep) phase. […] As the assessment criteria in the respective sleep steps, the criteria described in Japanese Pharmacological Journal 84, 25-89 (1984) were used.

[1] = Brain-to-plasma concentration ratio in rat after intravenous administration; type: in vivo; conditions: brain and plasma, 15 minutes after intravenous administration
Protocol: At 15 minutes after intravenously administration of the test compound to the rats, the plasma and brain were collected. A 50% acetonitrile solution and an acetonitrile including internal standard material were added to the collected plasma. The collected brain was added to a 2-fold volume of PBS and homogenized. A 50% acetonitrile solution and an acetonitrile including internal standard material were added to the brain homogenate. The sample was centrifuged at 4° C. and 2150×g for 10 minutes, the supernatant was measured by LC-MS/MS, and the total concentration of the test compound in the brain (Cbrain) and the total concentration of the test compound in the plasma (Cplasma,t) were obtained. The brain-to-plasma concentrations ratio (Kp,brain) was calculated by the following equation.
The Kp,uu,CSF values and the Kp,brain values of ramelteon and some Example compounds of the present invention are shown in Table 4. Ex represents Example No. of the test compound. Unless otherwise specified, the Kp,uu,CSF was calculated using the fp values determined by an ultracentrifugation method. Further, N.T. represents Not Tested.

[2] = maximum reaction by ramelteon taken as 100%

T1 sequence (P48039 whole entry): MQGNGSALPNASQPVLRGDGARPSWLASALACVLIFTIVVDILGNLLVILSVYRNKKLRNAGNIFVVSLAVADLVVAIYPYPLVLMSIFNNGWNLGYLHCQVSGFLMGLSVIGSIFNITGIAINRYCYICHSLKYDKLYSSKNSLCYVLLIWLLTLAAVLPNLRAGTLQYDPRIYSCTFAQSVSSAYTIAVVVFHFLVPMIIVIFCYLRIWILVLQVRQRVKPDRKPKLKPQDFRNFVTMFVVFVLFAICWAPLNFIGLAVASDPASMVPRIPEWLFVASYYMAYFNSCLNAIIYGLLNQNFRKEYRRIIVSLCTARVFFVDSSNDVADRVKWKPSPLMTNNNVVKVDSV

EC50 (human MT1 receptor; HEK293EBNA1 cells stably expressing human MT1 and Gq/i chimeric G protein, Ca2+ FLIPR): 7.5 nM
Emax (human MT1 receptor; [2]): 103%
EC50 (human MT2 receptor; HEK293 cells stably expressing human MT2 and Gq/i chimeric G protein, Ca2+ FLIPR): 10 nM
Emax (human MT2 receptor; [2]): 119%
Kp at 0.25 h [1]: 0.09
SMILES: CC(=O)NCCc1c[nH]c2cc(F)c(OCCOc3ccn(C)n3)cc12 [Example 6, N-[2-(6-fluoro-5-{2-[(1-methyl-1H-pyrazol-3-yl)oxy]ethoxy}-1H-indol-3-yl)ethyl]acetamide]
urethral pressure increasing action (SD female rats): good urethral pressure increasing action
occupancy in the respective sleep steps of electroencephalogram (rat; 10 mg/kg and 30 mg/kg): no change in the occupancy in the respective sleep steps of electroencephalogram could be seen
sleep action (rat; 10 mg/kg and 30 mg/kg): there was no sleep action
electroencephalogram (rat; 300 mg/kg): a variation in the electroencephalogram was observed
